Biological target: T1, CYP26A1 (Homo sapiens, UniProt O43174)
T1 sequence (O43174 1-497): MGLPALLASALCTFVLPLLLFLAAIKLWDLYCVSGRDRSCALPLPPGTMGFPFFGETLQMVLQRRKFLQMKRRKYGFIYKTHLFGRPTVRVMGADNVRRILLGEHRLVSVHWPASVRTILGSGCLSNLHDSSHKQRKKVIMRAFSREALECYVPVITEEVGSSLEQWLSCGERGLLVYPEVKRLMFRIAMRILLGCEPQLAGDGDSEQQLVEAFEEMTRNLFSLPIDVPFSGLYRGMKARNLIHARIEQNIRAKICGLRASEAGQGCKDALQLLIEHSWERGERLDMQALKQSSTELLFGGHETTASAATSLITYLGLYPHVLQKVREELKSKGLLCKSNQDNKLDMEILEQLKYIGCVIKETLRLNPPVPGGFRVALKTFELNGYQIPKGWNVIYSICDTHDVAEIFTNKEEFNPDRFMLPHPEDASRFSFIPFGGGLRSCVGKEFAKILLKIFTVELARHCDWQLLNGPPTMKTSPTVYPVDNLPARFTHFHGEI
Experiment: spectral titration
Assay type: binding

## CC1=C(/C=C/C(C)=C/C=C/C(C)=C/C(=O)O)C(C)(C)CCC1 [RA, all-trans-retinoic acid]
  Kd: 529 nM
